{"source": "patent US10792289B2", "about": "(Horizon Orphan LLC, priority 2009, dated 2020)", "system": "P. aeruginosa", "test": "Phase 2 study: P. aeruginosa density in sputum", "type": "in vivo, Pseudomonas aeruginosa", "details": "MITT; for Reduction in P. aeruginosa density in sputum: median Day 1 to Day 28", "description": "The following dosage regimens (as nebulizer loaded doses) were evaluated: 120 mg QD (daily); 240 mg QD (daily); and 240 mg BID (twice daily).\nPatients were assessed on Day 1, 7, 14, and 28, and then up to 28 days after completion of study drug, namely, Days 42 and 56. The end of the study was defined as the last visit of the last patient.\nEfficacy was evaluated by microbiologic assessment of sputum samples, time to need for anti-pseudomonal antimicrobials, the Cystic Fibrosis Questionaire-Revised (CFQ-R), and pulmonary function tests. […] Pair-wise comparisons between all the treatment arms were conducted as secondary analyses.", "key": {"[1]": {"details": "combined 240 mg QD and BID, Baseline to Day 7"}, "[2]": {"details": "combined 240 mg QD and BID, Baseline to Day 14"}, "[3]": {"details": "combined 240 mg QD and BID, Baseline to Day 28"}, "[4]": {"details": "combined 240 mg QD and BID, Day 1"}, "[5]": {"details": "combined 240 mg QD and BID, Day 7"}, "[6]": {"details": "combined 240 mg QD and BID, Day 14"}, "[7]": {"details": "combined 240 mg QD and BID, Day 28"}}}
{"smiles": "C[C@H]1COc2c(N3CCN(C)CC3)c(F)cc3c(=O)c(C(=O)O)cn1c23", "note": "[Levofloxacin, levofloxacin]", "values": [{"measurement": "Change in P. aeruginosa density, mean", "setting": "120 mg QD, Baseline to Day 7", "value": "−0.70", "unit": "log10 CTU/g sputum"}, {"measurement": "Change in P. aeruginosa density, median", "setting": "120 mg QD, Baseline to Day 7", "value": "−0.53", "unit": "log10 CTU/g sputum"}, {"measurement": "Change in P. aeruginosa density, mean", "setting": "120 mg QD, Baseline to Day 14", "value": "−0.07", "unit": "log10 CTU/g sputum"}, {"measurement": "Change in P. aeruginosa density, median", "setting": "120 mg QD, Baseline to Day 14", "value": 0.00, "unit": "log10 CTU/g sputum"}, {"measurement": "Change in P. aeruginosa density, mean", "setting": "120 mg QD, Baseline to Day 28", "value": "−0.27", "unit": "log10 CTU/g sputum"}, {"measurement": "Change in P. aeruginosa density, median", "setting": "120 mg QD, Baseline to Day 28", "value": "−0.20", "unit": "log10 CTU/g sputum"}, {"measurement": "P. aeruginosa density, mean", "setting": "120 mg QD, Day 1", "value": 7.43, "unit": "log10 CTU/g sputum"}, {"measurement": "P. aeruginosa density, median", "setting": "120 mg QD, Day 1", "value": 8.16, "unit": "log10 CTU/g sputum"}, {"measurement": "P. aeruginosa density, mean", "setting": "120 mg QD, Day 7", "value": 6.68, "unit": "log10 CTU/g sputum"}, {"measurement": "P. aeruginosa density, median", "setting": "120 mg QD, Day 7", "value": 6.98, "unit": "log10 CTU/g sputum"}, {"measurement": "P. aeruginosa density, mean", "setting": "120 mg QD, Day 14", "value": 7.33, "unit": "log10 CTU/g sputum"}, {"measurement": "P. aeruginosa density, median", "setting": "120 mg QD, Day 14", "value": 8.00, "unit": "log10 CTU/g sputum"}, {"measurement": "P. aeruginosa density, mean", "setting": "120 mg QD, Day 28", "value": 7.26, "unit": "log10 CTU/g sputum"}, {"measurement": "P. aeruginosa density, median", "setting": "120 mg QD, Day 28", "value": 7.78, "unit": "log10 CTU/g sputum"}, {"measurement": "Reduction in P. aeruginosa density in sputum", "setting": "120 mg QD", "value": "approximately 58%"}, {"measurement": "Change in P. aeruginosa density, mean", "setting": "240 mg BID, Baseline to Day 7", "value": "−0.97", "unit": "log10 CTU/g sputum"}, {"measurement": "Change in P. aeruginosa density, median", "setting": "240 mg BID, Baseline to Day 7", "value": "−0.76", "unit": "log10 CTU/g sputum"}, {"measurement": "Change in P. aeruginosa density, mean", "setting": "240 mg BID, Baseline to Day 14", "value": "−0.81", "unit": "log10 CTU/g sputum"}, {"measurement": "Change in P. aeruginosa density, median", "setting": "240 mg BID, Baseline to Day 14", "value": "−0.79", "unit": "log10 CTU/g sputum"}, {"measurement": "Change in P. aeruginosa density, mean", "setting": "240 mg BID, Baseline to Day 28", "value": "−0.66", "unit": "log10 CTU/g sputum"}, {"measurement": "Change in P. aeruginosa density, median", "setting": "240 mg BID, Baseline to Day 28", "value": "−0.56", "unit": "log10 CTU/g sputum"}, {"measurement": "P. aeruginosa density, mean", "setting": "240 mg BID, Day 1", "value": 7.17, "unit": "log10 CTU/g sputum"}, {"measurement": "P. aeruginosa density, median", "setting": "240 mg BID, Day 1", "value": 7.90, "unit": "log10 CTU/g sputum"}, {"measurement": "P. aeruginosa density, mean", "setting": "240 mg BID, Day 7", "value": 6.16, "unit": "log10 CTU/g sputum"}, {"measurement": "P. aeruginosa density, median", "setting": "240 mg BID, Day 7", "value": 6.53, "unit": "log10 CTU/g sputum"}, {"measurement": "P. aeruginosa density, mean", "setting": "240 mg BID, Day 14", "value": 6.32, "unit": "log10 CTU/g sputum"}, {"measurement": "P. aeruginosa density, median", "setting": "240 mg BID, Day 14", "value": 6.70, "unit": "log10 CTU/g sputum"}, {"measurement": "P. aeruginosa density, mean", "setting": "240 mg BID, Day 28", "value": 6.58, "unit": "log10 CTU/g sputum"}, {"measurement": "P. aeruginosa density, median", "setting": "240 mg BID, Day 28", "value": 6.48, "unit": "log10 CTU/g sputum"}, {"measurement": "Reduction in P. aeruginosa density in sputum", "setting": "240 mg BID", "value": "approximately 96%"}, {"measurement": "Change in P. aeruginosa density, mean", "setting": "240 mg QD, Baseline to Day 7", "value": "−0.31", "unit": "log10 CTU/g sputum"}, {"measurement": "Change in P. aeruginosa density, median", "setting": "240 mg QD, Baseline to Day 7", "value": "−0.18", "unit": "log10 CTU/g sputum"}, {"measurement": "Change in P. aeruginosa density, mean", "setting": "240 mg QD, Baseline to Day 14", "value": "−0.44", "unit": "log10 CTU/g sputum"}, {"measurement": "Change in P. aeruginosa density, median", "setting": "240 mg QD, Baseline to Day 14", "value": "−0.10", "unit": "log10 CTU/g sputum"}, {"measurement": "Change in P. aeruginosa density, mean", "setting": "240 mg QD, Baseline to Day 28", "value": "−0.25", "unit": "log10 CTU/g sputum"}, {"measurement": "Change in P. aeruginosa density, median", "setting": "240 mg QD, Baseline to Day 28", "value": "−0.39", "unit": "log10 CTU/g sputum"}, {"measurement": "P. aeruginosa density, mean", "setting": "240 mg QD, Day 1", "value": 7.08, "unit": "log10 CTU/g sputum"}, {"measurement": "P. aeruginosa density, median", "setting": "240 mg QD, Day 1", "value": 7.97, "unit": "log10 CTU/g sputum"}, {"measurement": "P. aeruginosa density, mean", "setting": "240 mg QD, Day 7", "value": 6.79, "unit": "log10 CTU/g sputum"}, {"measurement": "P. aeruginosa density, median", "setting": "240 mg QD, Day 7", "value": 6.95, "unit": "log10 CTU/g sputum"}, {"measurement": "P. aeruginosa density, mean", "setting": "240 mg QD, Day 14", "value": 6.63, "unit": "log10 CTU/g sputum"}, {"measurement": "P. aeruginosa density, median", "setting": "240 mg QD, Day 14", "value": 6.46, "unit": "log10 CTU/g sputum"}, {"measurement": "P. aeruginosa density, mean", "setting": "240 mg QD, Day 28", "value": 6.82, "unit": "log10 CTU/g sputum"}, {"measurement": "P. aeruginosa density, median", "setting": "240 mg QD, Day 28", "value": 7.38, "unit": "log10 CTU/g sputum"}, {"measurement": "Reduction in P. aeruginosa density in sputum", "setting": "240 mg QD", "value": "approximately 74%"}, {"measurement": "Largest difference in P. aeruginosa density, placebo vs levofloxacin", "setting": "Day 7", "value": 1.44, "unit": "log10 CFU/g sputum"}, {"measurement": "Largest difference in P. aeruginosa density, placebo vs levofloxacin", "setting": "Day 14", "value": 1.39, "unit": "log10 CFU/g sputum"}, {"measurement": "Largest difference in P. aeruginosa density, placebo vs levofloxacin", "setting": "Day 28", "value": 1.78, "unit": "log10 CFU/g sputum"}, {"measurement": "Change in P. aeruginosa density, mean", "setting": "[1]", "value": "−0.65", "unit": "log10 CTU/g sputum"}, {"measurement": "Change in P. aeruginosa density, median", "setting": "[1]", "value": "−0.35", "unit": "log10 CTU/g sputum"}, {"measurement": "Change in P. aeruginosa density, mean", "setting": "[2]", "value": "−0.63", "unit": "log10 CTU/g sputum"}, {"measurement": "Change in P. aeruginosa density, median", "setting": "[2]", "value": "−0.40", "unit": "log10 CTU/g sputum"}, {"measurement": "Change in P. aeruginosa density, mean", "setting": "[3]", "value": "−0.46", "unit": "log10 CTU/g sputum"}, {"measurement": "Change in P. aeruginosa density, median", "setting": "[3]", "value": "−0.5", "unit": "log10 CTU/g sputum"}, {"measurement": "P. aeruginosa density, mean", "setting": "[4]", "value": 7.12, "unit": "log10 CTU/g sputum"}, {"measurement": "P. aeruginosa density, median", "setting": "[4]", "value": 7.91, "unit": "log10 CTU/g sputum"}, {"measurement": "P. aeruginosa density, mean", "setting": "[5]", "value": 6.47, "unit": "log10 CTU/g sputum"}, {"measurement": "P. aeruginosa density, median", "setting": "[5]", "value": 6.69, "unit": "log10 CTU/g sputum"}, {"measurement": "P. aeruginosa density, mean", "setting": "[6]", "value": 6.48, "unit": "log10 CTU/g sputum"}, {"measurement": "P. aeruginosa density, median", "setting": "[6]", "value": 6.61, "unit": "log10 CTU/g sputum"}, {"measurement": "P. aeruginosa density, mean", "setting": "[7]", "value": 6.70, "unit": "log10 CTU/g sputum"}, {"measurement": "P. aeruginosa density, median", "setting": "[7]", "value": 6.90, "unit": "log10 CTU/g sputum"}]}
